The values below come from patent US7462625B2, “Gonadotropin-releasing hormone receptor antagonists and methods relating thereto” (Neurocrine Biosciences, Inc., priority 2000, dated 2008).

For this experiment, the target named is T1, GnRH receptor (Homo sapiens, UniProt P30968).
T1 construct: expressed in transfected cells
T1 sequence (P30968 1-328): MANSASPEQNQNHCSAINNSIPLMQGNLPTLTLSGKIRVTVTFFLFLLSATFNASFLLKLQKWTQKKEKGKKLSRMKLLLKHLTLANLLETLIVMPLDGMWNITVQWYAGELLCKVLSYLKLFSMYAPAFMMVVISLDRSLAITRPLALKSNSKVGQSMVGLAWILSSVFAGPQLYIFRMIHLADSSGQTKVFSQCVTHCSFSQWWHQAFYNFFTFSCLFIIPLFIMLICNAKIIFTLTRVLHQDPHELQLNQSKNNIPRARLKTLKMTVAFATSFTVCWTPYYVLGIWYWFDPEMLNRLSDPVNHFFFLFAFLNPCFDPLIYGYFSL
In words: GnRH receptor membrane binding assay. The protocol:
Radio-Iodination of GnRH Peptide
The GnRH analog is labeled by the chloramine-T method. […] The reaction is stopped by the addition of 60 μg sodium metabisulfite and the free iodine is removed by passing the iodinated mixture through a C-8 Sep-Pak cartridge (Millipore Corp., Milford, Mass.). The peptide is eluted with a small volume of 80% acetonitrile/water. […] The purified radioactive peptide is stored in 0.1% BSA/20% acetonitrile/0.1% TFA at −80° C. and can be used for up to 4 weeks.
GnRH Receptor Membrane Binding Assay
Cells stably, or transiently, transfected with GnRH receptor expression vectors are harvested, resuspended in 5% sucrose and homogenized using a polytron homogenizer (2×15 sec). Nucleii are removed by centrifugation (3000×g for 5 min.), and the supernatant centrifuged (20,000×g for 30 min, 4° C.) to collect the membrane fraction. The final membrane preparation is resuspended in binding buffer (10 mM Hepes (pH 7.5), 150 mM NaCl, and 0.1% BSA) and stored at −70° C. Binding reactions are performed in a Millipore MultiScreen 96-well filtration plate assembly with polyethylenimine coated GF/C membranes. […] The reaction is terminated after 90 minutes by application of vacuum and washing (2×) with phosphate buffered saline. Bound radioactivity is measured using 96-well scintillation counting (Packard Topcount) or by removing the filters from the plate and direct gamma counting. Ki values are calculated from competition binding data using non-linear least squares regression using the Prism software package (GraphPad Software).

[1] abbreviates: GnRH receptor membrane binding assay, [125I]-labeled GnRH peptide, read-out: Ki.

Read-outs that look alike come from different tables or passages of the source. A value given as a limit tells only on which side of the number the result lay.

As a reminder, the Ki is a measure of affinity in units of concentration, obtained from inhibition or displacement.

As to `Cc1cccc(-c2c(C)n(Cc3c(F)cccc3F)c(=O)n(C[C@H](N)c3ccccc3)c2=O)c1F` [8-17], the Ki was less than 100 nM.
As for `COc1cccc(-c2c(C)n(Cc3c(F)cccc3F)c(=O)n([C@H](C)CNCc3cccc4ccccc34)c2=O)c1F` [9-502], under setting [1], the inhibitory constant (Ki) is less than 100 nM.
On the same count and under the same terms, then `COc1cccc(-c2c(C)n(Cc3c(F)cccc3F)c(=O)n(CCN3CCC(N4CCCC4)CC3)c2=O)c1` [7-2], with less than 100 nM; and `Cc1c(-c2ccc3c(c2)OCO3)c(=O)n(CCNCC(F)(F)F)c(=O)n1Cc1c(F)cccc1F` [9-164], with less than 100 nM.
Still for that read-out and setting: the result for `COc1cccc(-c2c(C)n(Cc3c(F)cccc3F)c(=O)n(C[C@H](N)C(C)C)c2=O)c1F` [8-25] reads less than 100 nM; that for `Cc1c(-c2ccc3c(c2)OCO3)c(=O)n(CCN[C@@H](C)c2ccc3ccccc3c2)c(=O)n1Cc1c(F)cccc1F` [9-247], less than 100 nM.
On to `COc1cccc(-c2c(C)n(Cc3c(F)cccc3F)c(=O)n(CC(C)NCc3cccs3)c2=O)c1F` (stereo not shown) [9-621], for which the Ki under setting [1] is less than 100 nM.
In the case of `CCC(CC(C)C)N[C@@H](C)Cn1c(=O)c(-c2cccc(OC)c2F)c(C)n(Cc2c(F)cccc2F)c1=O` (stereo partly shown) [9-688], the Ki under setting [1] is less than 100 nM.
Regarding `Cc1c(-c2ccc3c(c2)OCCO3)c(=O)n(CCNCCN(C)C)c(=O)n1Cc1c(F)cccc1F` [9-270], the inhibitory constant (Ki) under setting [1] was less than 100 nM.
In the case of `Cc1c(-c2csc(-c3ccc(F)cc3)n2)c(=O)n(C[C@H](N)c2ccccc2)c(=O)n1Cc1c(F)cccc1F` [12-24], the Ki under setting [1] is less than 100 nM.
For `COc1cccc(-c2c(C)n(Cc3c(F)cccc3F)c(=O)n([C@H](C)CNCc3ccccc3C)c2=O)c1F` [9-653], under setting [1], the Ki was less than 100 nM.
Turning to `COc1cccc(-c2c(C)n(Cc3c(F)cccc3F)c(=O)n(CCN3CCC(NC(=O)OC(C)(C)C)C3)c2=O)c1` (stereo not shown) [7-4], the Ki under setting [1] was less than 100 nM.
For the compound `COc1cccc(-c2c(C)n(Cc3c(F)cccc3F)c(=O)n([C@H](C)CNCc3ccccn3)c2=O)c1F` [9-512], the Ki under setting [1] is less than 100 nM.
With `COc1cccc(-c2c(C)n(Cc3c(F)cccc3F)c(=O)n(CCN(C)CCc3cccc(Cl)n3)c2=O)c1` [1-11], under setting [1], the Ki is less than 100 nM.
The same measure, in the same setting: then `Cc1c(-c2ccc(Oc3ccccc3)cc2)c(=O)n(CCNCCC(c2ccccc2)c2ccccc2)c(=O)n1Cc1c(F)cccc1F` [9-140], with less than 100 nM; and `CCN(CC)CCn1c(=O)c(-c2ccc(Oc3ccccc3)cc2)c(C)n(Cc2c(F)cccc2F)c1=O` [9-224], with less than 100 nM.
As for `COc1cccc(-c2c(C)n(Cc3c(F)cccc3F)c(=O)n(C[C@H](C)N(C)Cc3ccccn3)c2=O)c1F` [9-409], under setting [1], the Ki was less than 100 nM.
For the compound `Cc1c(-c2ccc3c(c2)OCO3)c(=O)n(CCNCC2CC2)c(=O)n1Cc1c(F)cccc1F` [9-245], the Ki under setting [1] was less than 100 nM.
Still for that read-out and setting: then `Cc1c(-c2ccc(Oc3ccccc3)cc2)c(=O)n(CCN[C@@H](C)c2ccc3ccccc3c2)c(=O)n1Cc1c(F)cccc1F` [9-219], with less than 100 nM.
Same read-out and setting: the result for `Cc1c(-c2ccc3c(c2)OCO3)c(=O)n(CCN2CCN(c3cccc(Cl)c3)CC2)c(=O)n1Cc1c(F)cccc1F` [9-70] reads less than 100 nM; that for `Cc1c(-c2ccccc2F)c(=O)n(CCN2CCN(c3cccc(Cl)c3)CC2)c(=O)n1Cc1c(F)cccc1F` [9-56], less than 100 nM.
Consider `COc1cccc(-c2c(C)n(Cc3c(F)cccc3F)c(=O)n(C[C@H](C)NCc3ccc(Cl)s3)c2=O)c1F` [9-677], for which the Ki under setting [1] is less than 100 nM.
`Cc1c(-c2ccc(Oc3ccccc3)cc2)c(=O)n(CCN2CCN(c3ccccc3)CC2)c(=O)n1Cc1c(F)cccc1F` [9-146]: the Ki under setting [1] is less than 100 nM.
Same read-out and setting: the result for `COc1cccc(-c2c(C)n(Cc3c(F)cccc3F)c(=O)n(C[C@H](C)N(C)Cc3ccccc3)c2=O)c1F` [9-305] reads less than 100 nM; that for `CCc1c(-c2cccc(OC)c2F)c(=O)n(C[C@H](N)c2ccccc2)c(=O)n1Cc1c(F)cccc1F` [15-1], less than 100 nM; that for `CCN[C@H](Cn1c(=O)c(-c2cccc(OC)c2F)c(C)n(Cc2c(F)cccc2F)c1=O)C(C)C` [9-714], less than 100 nM.
As to `Cc1c(-c2ccccc2F)c(=O)n(CCNCCN(C)C)c(=O)n1Cc1c(F)cccc1F` [9-227], under setting [1], the Ki was less than 100 nM.
With `Cc1c(-c2ccc3c(c2)OCO3)c(=O)n(CCN2CCN(c3cccc(C(F)(F)F)c3)CC2)c(=O)n1Cc1c(F)cccc1F` [9-361], the Ki under setting [1] is less than 100 nM.
In the case of `CCN(CCc1ccccn1)CCn1c(=O)c(-c2ccc3c(c2)OCO3)c(C)n(Cc2c(F)cccc2F)c1=O` [3-4], the Ki under setting [1] is less than 100 nM.
As to `Cc1ccc(-c2c(C)n(Cc3c(F)cccc3F)c(=O)n(C[C@H](N)c3ccccc3)c2=O)s1` [8-106], the Ki under setting [1] was less than 100 nM.
For `Cc1c(-c2ccc3c(c2)OCCO3)c(=O)n(CCN2CC(C)OC(C)C2)c(=O)n1Cc1c(F)cccc1F` (stereo not shown) [9-96], under setting [1], the Ki is less than 100 nM.
As for `Cc1c(-c2ccc(Oc3ccccc3)cc2)c(=O)n(CCN(C)CCc2ccccn2)c(=O)n1Cc1c(F)cccc1F` [6-2], the Ki under setting [1] is less than 100 nM.
`COc1cccc(-c2c(C)n(Cc3c(F)cccc3F)c(=O)n(C[C@H](Cc3ccccc3)N(C)C)c2=O)c1F` [9-443]: the Ki under setting [1] was less than 100 nM.
With `COc1cccc(-c2c(C)n(Cc3c(F)cccc3F)c(=O)n([C@H](C)CNCc3ccc4c(c3)CCO4)c2=O)c1F` [9-495], the Ki under setting [1] was less than 100 nM.
On to `CCN(CC)CCN(C)CCn1c(=O)c(-c2ccc3c(c2)OCO3)c(C)n(Cc2c(F)cccc2F)c1=O` [9-249], for which the Ki under setting [1] was less than 100 nM.
As to `COc1cccc(-c2c(C)n(Cc3c(F)cccc3F)c(=O)n([C@H](C)CNCc3cccc(C)c3)c2=O)c1` [9-473], the Ki under setting [1] is less than 100 nM.
For the compound `CCc1ccc(CN[C@@H](C)Cn2c(=O)c(-c3cccc(OC)c3F)c(C)n(Cc3c(F)cccc3F)c2=O)o1` [9-665], the Ki under setting [1] was less than 100 nM.
Still for that read-out and setting: the result for `COc1cccc(-c2c(C)n(Cc3c(F)cccc3F)c(=O)n([C@H](C)CNCc3ccccc3F)c2=O)c1` [9-446] reads less than 100 nM; that for `Cc1c(-c2ccc(Oc3ccccc3)cc2)c(=O)n(CCNCC(F)(F)F)c(=O)n1Cc1c(F)cccc1F` [9-138], less than 100 nM; that for `Cc1c(-c2cccs2)c(=O)n(C[C@H](N)c2ccccc2)c(=O)n1Cc1c(F)cccc1F` [8-107], less than 100 nM.
In the case of `COc1cccc(-c2c(C)n(Cc3c(F)cccc3F)c(=O)n(CC[C@@H](N)c3ccccc3)c2=O)c1` [9-774], under setting [1], the Ki is less than 100 nM.
On the same count and under the same terms, then `CCCN(CCn1c(=O)c(-c2ccc(C(C)C)cc2)c(C)n(Cc2c(F)cccc2F)c1=O)C(C)CC` (stereo not shown) [9-86], with less than 100 nM; and `COc1cccc(-c2c(C)n(Cc3c(F)cccc3F)c(=O)n(CCN3CC4CC3CO4)c2=O)c1` (stereo not shown) [7-10], with less than 100 nM.
As to `Cc1ccc(N2CCN(CCn3c(=O)c(-c4ccc(Oc5ccccc5)cc4)c(C)n(Cc4c(F)cccc4F)c3=O)CC2)cc1` [9-225], the Ki under setting [1] was less than 100 nM.
In the case of `COc1cccc(-c2c(C)n(Cc3c(F)cccc3F)c(=O)n(CCN(C)Cc3ccccn3)c2=O)c1` [1-3], under setting [1], the Ki was less than 100 nM.
As to `Cc1c(-c2ccc(Oc3ccccc3)cc2)c(=O)n(CCN(Cc2ccccc2)Cc2ccccc2)c(=O)n1Cc1c(F)cccc1F` [9-39], the Ki under setting [1] is less than 100 nM.
Consider `CCOc1ccccc1CNC[C@@H](C)n1c(=O)c(-c2cccc(C)c2F)c(C)n(Cc2c(F)cccc2F)c1=O` [9-636], for which, under setting [1], the Ki is less than 100 nM.
The same measure, in the same setting: the result for `COc1cccc(-c2c(C)n(Cc3c(F)cccc3F)c(=O)n(C[C@@H](N)CC(C)C)c2=O)c1F` [8-23] reads less than 100 nM.
In turn, `COc1cccc(-c2c(C)n(Cc3c(F)cccc3F)c(=O)n(CCN(C)CCc3ccccn3)c2=O)c1F` [9-24] had a Ki of less than 100 nM.
With `Cc1c(-c2ccc3c(c2)OCCO3)c(=O)n(CCN(C)CCc2ccccn2)c(=O)n1Cc1c(F)cccc1F` [6-3], under setting [1], the Ki is less than 100 nM.
Regarding `Cc1c(-c2ccc3c(c2)OCCO3)c(=O)n(CCN2CCN(c3ccccc3)CC2)c(=O)n1Cc1c(F)cccc1F` [9-199], the Ki under setting [1] is less than 100 nM.
Turning to `COc1cccc(Oc2ccc(-c3c(C)n(Cc4c(F)cccc4F)c(=O)n(C[C@H](N)c4ccccc4)c3=O)cc2)c1` [8-68], under setting [1], the Ki is less than 100 nM.
Turning to `CCc1c(-c2cccc(OC)c2)c(=O)n(C[C@H](N)c2ccccc2)c(=O)n1Cc1c(F)cccc1F` [15-2], the Ki under setting [1] is less than 100 nM.
Consider `COc1cccc(-c2c(C)n(Cc3c(F)cccc3F)c(=O)n(C[C@@H](NC(C)C)C(C)C)c2=O)c1F` [9-712], for which, under setting [1], the Ki is less than 100 nM.
On the same count and under the same terms, the result for `Cc1c(-c2ccccc2F)c(=O)n(CCNC2CCC(C)CC2)c(=O)n1Cc1c(F)cccc1F` (stereo not shown) [9-149] reads less than 100 nM; that for `CCOC(=O)N1CCN(CCn2c(=O)c(-c3ccc4c(c3)OCO4)c(C)n(Cc3c(F)cccc3F)c2=O)CC1` [9-362], less than 100 nM; that for `Cc1c(-c2ccc(Oc3ccccc3)cc2)c(=O)n(CCN2CCCC(C(N)=O)C2)c(=O)n1Cc1c(F)cccc1F` (stereo not shown) [9-37], less than 100 nM.
For the compound `COc1cccc(-c2c(C)n(Cc3c(F)cccc3F)c(=O)n(CCN(CCc3ccccn3)CC3CC3)c2=O)c1` [1-12], under setting [1], the Ki was less than 100 nM.
